Measurements: the supplement of paper PMC11061612

Columns and labels:
[1] = compound: C=CCn1c(=O)c2cnc(Nc3ccc(N4CCN(C)CC4)cc3)nc2n1-c1cccc(C(C)(C)O)n1 [AZD1775]
How it was run: (§1)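 After 24 hours at 37°C and 5% CO2 in 1536-well plates holding 7.5 μl of DMEM/F12 or RPMI with 10% FBS, cancer cell lines were dosed for 72 hours, with final DMSO typically 0.2%. Viability came from CellTiter-Glo 2.0 luminescence, scaled between the means of blank wells and DMSO wells. A non-linear mixed effects model fitted a two-parameter logistic curve to each dose response to give the single-agent IC50.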

[2] = compound: COc1cc(Nc2ncc3c(n2)-c2ccc(Cl)cc2C(c2c(F)cccc2OC)=NC3)ccc1C(=O)O [Alisertib]; details: max 10 µM
How it was run: as §1

[3] = compound: CC(=O)c1c(C)c2cnc(Nc3ccc(N4CCNCC4)cn3)nc2n(C2CCCC2)c1=O [Palbociclib]; details: max 10 µM
How it was run: as §1

[4] = compound: CC(C)n1c(=O)n(C)c2cnc3cc(F)c(-c4ccc(OCCCN5CCCCC5)nc4)cc3c21 [AZD1390]; details: max 0.3 µM
How it was run: as §1

[5] = compound: COc1cccc(OCCCN)c1-c1cc(Nc2cnc(C#N)cn2)n[nH]1 [Prexasertib]; details: max 1 µM
How it was run: as §1

[6] = compound: CC1=C(C(=CC=C1)Cl)NC(=O)C2=CN=C(S2)NC3=CC(=NC(=N3)C)N4CCN(CC4)CCO [Dasatinib]; details: max 2 µM
How it was run: as §1

[7] = compound: CCc1c2c(nc3ccc(O)cc13)-c1cc3c(c(=O)n1C2)COC(=O)[C@]3(O)CC [SN-38]; details: max 0.3 µM
How it was run: as §1

[8] = compound: O=C(c1cc(Cc2n[nH]c(=O)c3ccccc23)ccc1F)N1CCN(C(=O)C2CC2)CC1 [Olaparib]
How it was run: as §1

[9] = compound: CC1=CN2[C@@H](C1)C=NC3=CC(=C(C=C3C2=O)OC)OCCCCCOC4=C(C=C5C(=C4)N=C[C@@H]6CC(=CN6C5=O)C)OC [SG3199]; details: max 0.001 µM
How it was run: as §1

[10] = compound: C1CN(CCC1(C(=O)N[C@@H](CCO)C2=CC=C(C=C2)Cl)N)C3=NC=NC4=C3C=CN4 [Capivasertib]
How it was run: as §1

[11] = compound: C[C@@H](Nc1cc(F)cc(F)c1)c1cc(C(=O)N(C)C)cc2c(=O)cc(N3CCOCC3)oc12 [AZD8186]; details: max 3 µM
How it was run: as §1

[12] = compound: C[C@@H](c1ccc2nccn2c1)n1nnc2ncc(-c3cnn(C)c3)nc21 [Savolitinib]; details: max 1 µM
How it was run: as §1

[13] = compound: CC(=O)Nc1cccc(-n2c(=O)n(C3CC3)c(=O)c3c(Nc4ccc(I)cc4F)n(C)c(=O)c(C)c32)c1 [Trametinib]; details: max 1 µM
How it was run: as §1

[14] = compound: CC1(C)CCC(CN2CCN(c3ccc(C(=O)NS(=O)(=O)c4ccc(NCC5CCOCC5)c([N+](=O)[O-])c4)c(Oc4cnc5[nH]ccc5c4)c3)CC2)=C(c2ccc(Cl)cc2)C1 [Venetoclax]; details: max 1 µM
How it was run: as §1

[15] = compound: CN(C)CCCOc1ccc(-c2ccc3ncc4c(c3c2)n(C2CCOCC2)c(=O)n4C)cn1 [AZD0156]
How it was run: as §1

[16] = compound: C[C@@H](Oc1cc(-c2cnn(C3CCNCC3)c2)cnc1N)c1c(Cl)ccc(F)c1Cl [Crizotinib]; details: max 10 µM
How it was run: as §1

[17] = compound: C[C@@H]1COCCN1C2=NC(=NC(=C2)C3(CC3)[S@](=N)(=O)C)C4=C5C=CNC5=NC=C4 [AZD6738]; details: max 10 µM
How it was run: as §1

[18] = compound: COc1nnc2ccc(N3CCC(c4ccc(OCCN5CCN(C)C(=O)[C@H]5C)cc4)CC3)nn12 [AZD5153]; details: max 1 µM
How it was run: as §1

[19] = compound: COc1cccc2c1C(=O)c1c(O)c3c(c(O)c1C2=O)C[C@@](O)(C(=O)CO)C[C@@H]3O[C@H]1C[C@H](N)[C@H](O)[C@H](C)O1 [Doxorubicin]; details: max 1 µM
How it was run: as §1

[20] = compound: CCN(CCO)CCCOc1ccc2c(Nc3cc(CC(=O)Nc4cccc(F)c4)[nH]n3)ncnc2c1 [AZD2811]; details: max 1 µM
How it was run: as §1

[21] = compound: Cn1cnc2c(F)c(Nc3ccc(Br)cc3Cl)c(C(=O)NOCCO)cc21 [Selumetinib]; details: max 10 µM
How it was run: as §1

[22] = compound: Cc1cc2ncnn2cc1Nc1ncc2c(n1)n(C1CCOCC1)c(=O)n2C [AZD7648]; details: max 10 µM
How it was run: as §1

[23] = compound: COc1cc2ncnc(Nc3ccc(F)c(Cl)c3)c2cc1OCCCN1CCOCC1 [Gefitinib]; details: max 10 µM
How it was run: as §1

[24] = compound: CN(CC[C@H](CSC1=CC=CC=C1)NC2=C(C=C(C=C2)S(=O)(=O)NC(=O)C3=CC=C(C=C3)N4CCC(CC4)[C@H](C5=CC=CC=C5C6=CC=C(C=C6)Cl)O)S(=O)(=O)C(F)(F)F)CCO [AZD4320]; details: max 1 µM
How it was run: as §1

[25] = compound: Cc1c2c(nn1C)CSCc1cc(n(C)n1)CSc1cc(c3ccccc3c1)OCCCc1c(C(=O)O)n(C)c3c-2c(Cl)ccc13 [AZD5991]; details: max 1 µM
How it was run: as §1

[26] = compound: CS(=O)(=O)CCNCc1ccc(-c2ccc3ncnc(Nc4ccc(OCc5cccc(F)c5)c(Cl)c4)c3c2)o1 [Lapatinib]; details: max 10 µM
How it was run: as §1

[27] = compound: Cc1nc(-c2cn3c(n2)-c2ccc(-c4cnn(C(C)(C)C(N)=O)c4)cc2OCC3)n(C(C)C)n1 [Taselisib]; details: max 10 µM
How it was run: as §1

| Cell Line | IC50, cell viability 72 h ([1]; max 3 µM) | IC50, cell viability 72 h [2] | IC50, cell viability 72 h [3] | IC50, cell viability 72 h [4] | IC50, cell viability 72 h [5] | IC50, cell viability 72 h [6] | IC50, cell viability 72 h [7] | IC50, cell viability 72 h ([8]; max 10 µM) | IC50, cell viability 72 h [9] | IC50, cell viability 72 h ([10]; max 10 µM) | IC50, cell viability 72 h [11] | IC50, cell viability 72 h [12] | IC50, cell viability 72 h [13] | IC50, cell viability 72 h [14] | IC50, cell viability 72 h ([15]; max 3 µM) | IC50, cell viability 72 h [16] | IC50, cell viability 72 h [17] | IC50, cell viability 72 h [18] | IC50, cell viability 72 h [19] | IC50, cell viability 72 h [20] | IC50, cell viability 72 h [21] | IC50, cell viability 72 h [22] | IC50, cell viability 72 h [23] | IC50, cell viability 72 h [24] | IC50, cell viability 72 h [25] | IC50, cell viability 72 h [26] | IC50, cell viability 72 h [27] | IC50, cell viability 72 h ([8]; max 3 µM) | IC50, cell viability 72 h ([10]; max 3 µM) | IC50, cell viability 72 h ([1]; max 1 µM) | IC50, cell viability 72 h ([15]; max 1 µM) |
| --- | --- | --- | --- | --- | --- | --- | --- | --- | --- | --- | --- | --- | --- | --- | --- | --- | --- | --- | --- | --- | --- | --- | --- | --- | --- | --- | --- | --- | --- | --- | --- |
| ALL-PO (B-Lymphoblastic Leukemia) | 0.51 µM | 0.0559 µM | 4.65 µM | > 0.3 µM | 0.0177 µM | > 2 µM | 0.00205 µM | 7.82 µM | > 0.001 µM | 7.8 µM | > 3 µM | > 1 µM | > 1 µM | 0.733 µM | > 3 µM | 1.81 µM | 2.12 µM | 0.0672 µM | 0.166 µM | 0.00676 µM | > 10 µM | > 10 µM | > 10 µM | 0.0214 µM | 0.0574 µM | 5.96 µM | 5.29 µM |  |  |  |  |
| BE2-M17 (Neuroblastoma) | 0.9 µM | 1.91 µM | > 10 µM | > 0.3 µM | 0.0249 µM | > 2 µM | 0.0145 µM | > 10 µM | > 0.001 µM | > 10 µM | > 3 µM | > 1 µM | 0.127 µM | > 1 µM | > 3 µM | 8.33 µM | 4.84 µM | > 1 µM | 0.425 µM | > 1 µM | 9.3 µM | > 10 µM | > 10 µM | > 1 µM | 0.324 µM | > 10 µM | 2.62 µM |  |  |  |  |
| BPH-1 (Non-Cancerous) | 0.882 µM | 1.35 µM | > 10 µM | > 0.3 µM | > 1 µM | 0.127 µM | 0.00684 µM | > 10 µM | > 0.001 µM | > 10 µM | > 3 µM | > 1 µM | 0.0802 µM | > 1 µM | > 3 µM | > 10 µM | > 10 µM | 0.0694 µM | 0.312 µM | > 1 µM | 4.72 µM | > 10 µM | 5.9 µM | > 1 µM | > 1 µM | 0.836 µM | 0.379 µM |  |  |  |  |
| CAL-33 (Oral Cavity Carcinoma) | 0.659 µM | 0.553 µM | > 10 µM | > 0.3 µM | 0.138 µM | 0.55 µM | 0.00571 µM | > 10 µM | > 0.001 µM | > 10 µM | > 3 µM | > 1 µM | 0.724 µM | > 1 µM | > 3 µM | > 10 µM | 4.39 µM | > 1 µM | 0.219 µM | 0.255 µM | > 10 µM | > 10 µM | > 10 µM | > 1 µM | > 1 µM | 3.53 µM | 0.122 µM |  |  |  |  |
| CHP-134 (Neuroblastoma) | 0.646 µM |  |  |  |  |  |  |  |  |  |  |  |  |  | > 3 µM |  |  |  |  |  |  |  |  |  |  |  |  | > 3 µM | > 3 µM |  |  |
| Detroit562 (Head and Neck Carcinoma) | 0.43 µM | 0.76 µM | > 10 µM | > 0.3 µM | 0.0295 µM | 0.115 µM | 0.022 µM | > 10 µM | > 0.001 µM | 6.95 µM | > 3 µM | > 1 µM | > 1 µM | > 1 µM | > 3 µM | 1.68 µM | 2.15 µM | 0.0652 µM | > 1 µM | 0.188 µM | > 10 µM | > 10 µM | > 10 µM | > 1 µM | > 1 µM | 2.02 µM | 0.355 µM |  |  |  |  |
| FTC-133 (Thyroid Gland Carcinoma) |  | 8.36 µM | > 10 µM | > 0.3 µM | 0.0292 µM | > 2 µM | 0.00651 µM | > 10 µM | > 0.001 µM | 8.76 µM | > 3 µM | > 1 µM | > 1 µM | > 1 µM |  | > 10 µM | 4.69 µM | 0.657 µM | 0.352 µM | > 1 µM | > 10 µM | > 10 µM | > 10 µM | > 1 µM | 0.999 µM | > 10 µM | > 10 µM |  |  | 0.968 µM | > 1 µM |
| HeLa (Cervical Carcinoma) | 0.893 µM | > 10 µM | > 10 µM | > 0.3 µM | 0.105 µM | > 2 µM | > 0.3 µM | > 10 µM | > 0.001 µM | > 10 µM | > 3 µM | > 1 µM | > 1 µM | > 1 µM | > 3 µM | > 10 µM | > 10 µM | > 1 µM | > 1 µM | > 1 µM | > 10 µM | > 10 µM | > 10 µM | > 1 µM | > 1 µM | > 10 µM | > 10 µM |  |  |  |  |
| Hs-746T (Gastric Carcinoma) | 1.44 µM | > 10 µM | > 10 µM | > 0.3 µM | 0.0664 µM | > 2 µM | > 0.3 µM | > 10 µM | > 0.001 µM | > 10 µM | > 3 µM | 0.0409 µM | 0.254 µM | > 1 µM | > 3 µM | 0.683 µM | 9.89 µM | 0.833 µM | > 1 µM | > 1 µM | > 10 µM | > 10 µM | > 10 µM | > 1 µM | > 1 µM | > 10 µM | > 10 µM |  |  |  |  |
